Measurements as given in ChEMBL document CHEMBL3600301, “CholesteroNitrones for Stroke” (J Med Chem, 2015).
Active and inactive are the calls of the source. The calls are words filed in the database; no cut-off is given here.

How the values were obtained:
Primary neuron [1] = assay: Protection against oxygen-glucose deprivation-induced cytotoxicity in Sprague-Dawley rat cerebral cortex primary neuronal cell cultures assessed as increase in cell viability at 1 and 5 uM added after 48 hrs post recovery period and measured during recovery for 5 days by MTT assay; format: functional, tissue-based
Primary neuron [2] = assay: Protection against oxygen-glucose deprivation-induced cytotoxicity in Sprague-Dawley rat cerebral cortex primary neuronal cell cultures assessed as increase in cell viability at 5 uM added at onset of recovery period by MTT assay; format: functional, tissue-based
[3] = Protection against oxygen-glucose deprivation-induced cytotoxicity in Sprague-Dawley rat cerebral cortex primary neuronal cell cultures assessed as increase in cell viability at 1 uM added at onset of recovery period and measured during recovery for 5 days by MTT assay (reference value: 0.842 AU); format: functional, Primary neuron
Primary neuron [4] = assay: Protection against oxygen-glucose deprivation-induced cytotoxicity in Sprague-Dawley rat cerebral cortex primary neuronal cell cultures assessed as increase in cell viability at 1 and 5 uM added at onset of recovery period and measured during recovery for 5 days by MTT assay; format: functional, tissue-based
Primary neuron [5] = assay: Protection against oxygen-glucose deprivation-induced cytotoxicity in Sprague-Dawley rat cerebral cortex primary neuronal cell cultures assessed as increase in cell viability at 1 uM added at onset of recovery period by MTT assay; format: functional, tissue-based
[6] = Protection against oxygen-glucose deprivation-induced cytotoxicity in Sprague-Dawley rat cerebral cortex primary neuronal cell cultures assessed as increase in cell viability at 5 uM added at onset of recovery period and measured during recovery for 5 days by MTT assay (reference value: 0.842 AU); format: functional, Primary neuron
Primary neuron [7] = assay: Protection against oxygen-glucose deprivation-induced cytotoxicity in Sprague-Dawley rat cerebral cortex primary neuronal cell cultures assessed as increase in cell viability at 0.1 to 250 uM added at onset of recovery period by MTT assay; format: functional, tissue-based
Rattus norvegicus [8] = assay: Neuroprotection in Wistar rat model of ischemia assessed as reduction in neurological deficit score at 0.1 mg/kg measured after 5 days of reperfusion (reference value: 2.5 +/- 0.34 No unit); format: functional
Rattus norvegicus [9] = assay: Neuroprotection in Wistar rat model of ischemia assessed as reduction ischemia-induced neuronal death in hippocampal CA1 regions at 0.1 mg/kg, ip dosed at onset of reperfusion period and measured on 5 days of reperfusion by fluoro jade B staining based fluorescence microscopy; format: functional; set-up: scale not given: the % may be the effect or the level left
Rattus norvegicus [10] = assay: Neuroprotection in Wistar rat model of ischemia assessed as reduction ischemia-induced neuronal death in hippocampal CA1 regions at 0.05 mg/kg, ip dosed at onset of reperfusion period and measured on 5 days of reperfusion by fluoro jade B staining based fluorescence microscopy; format: functional; set-up: scale not given: the % may be the effect or the level left
Primary neuron [11] = assay: Protection against oxygen-glucose deprivation-induced cytotoxicity in Sprague-Dawley rat cerebral cortex primary neuronal cell cultures assessed as increase in cell viability at 250 uM added at onset of recovery period by MTT assay; format: functional, tissue-based
Rattus norvegicus [12] = assay: Neuroprotection in Wistar rat model of ischemia assessed as reduction ischemia-induced neuronal apoptosis in cortical regions at 0.05 and 0.1 mg/kg, ip dosed at onset of reperfusion period and measured on 5 days of reperfusion by TUNEL assay; format: functional; set-up: scale not given: the % may be the effect or the level left
Primary neuron [13] = assay: Reduction of oxygen-glucose deprivation-induced ROS generation in Sprague-Dawley rat cerebral cortex primary neuronal cell cultures at 1 to 10 uM measured at 2 hrs of recovery after oxygen-glucose deprivation by fluorescence assay; format: functional, tissue-based
Rattus norvegicus [14] = assay: Neuroprotection in Wistar rat model of ischemia assessed as reduction in neurological deficit score at 0.005 mg/kg measured after 5 days of reperfusion (reference value: 2.5 +/- 0.34 No unit); format: functional
Primary neuron [15] = assay: Reduction of oxygen-glucose deprivation-induced lipid peroxidation in Sprague-Dawley rat cerebral cortex primary neuronal cell cultures assessed as reduction in MDA level at 5 uM measured at 4 hrs of recovery after oxygen-glucose deprivation by TBARS based colorimetric and fluorometric assay; format: functional, tissue-based
Rattus norvegicus [16] = assay: Neuroprotection in Wistar rat model of ischemia assessed as reduction ischemia-induced neuronal death in cortical regions at 0.1 mg/kg, ip dosed at onset of reperfusion period and measured on 5 days of reperfusion by fluoro jade B staining based fluorescence microscopy; format: functional; set-up: scale not given: the % may be the effect or the level left
Rattus norvegicus [17] = assay: Neuroprotection in Wistar rat model of ischemia assessed as reduction ischemia-induced neuronal apoptosis in hippocampal CA1 regions at 0.05 and 0.1 mg/kg, ip dosed at onset of reperfusion period and measured on 5 days of reperfusion by TUNEL assay; format: functional; set-up: scale not given: the % may be the effect or the level left
[18] = Toxicity in Sprague-Dawley rat cerebral cortex primary neuronal cell cultures under oxygen-glucose deprivation conditions assessed as […] in cell viability at >10 uM added at onset of recovery period by MTT assay; format: tissue-based; settings: primary neuron
Rattus norvegicus [19] = assay: Neuroprotection in Wistar rat model of ischemia assessed as reduction ischemia-induced neuronal death in cortical regions at 0.05 mg/kg, ip dosed at onset of reperfusion period and measured on 5 days of reperfusion by fluoro jade B staining based fluorescence microscopy; format: functional; set-up: scale not given: the % may be the effect or the level left
[20] = Toxicity in Sprague-Dawley rat cerebral cortex primary neuronal cell cultures under oxygen-glucose deprivation conditions assessed as […] in cell viability at >50 uM added at onset of recovery period by MTT assay; format: tissue-based; settings: primary neuron
Rattus norvegicus [21] = assay: Neuroprotection in Wistar rat model of ischemia assessed as reduction ischemia-induced neuronal death in hippocampal CA1 regions at 40 mg/kg, ip dosed at onset of reperfusion period and measured on 5 days of reperfusion by fluoro jade B staining based fluorescence microscopy; format: functional; set-up: scale not given: the % may be the effect or the level left
Primary neuron [22] = assay: Protection against oxygen-glucose deprivation-induced cytotoxicity in Sprague-Dawley rat cerebral cortex primary neuronal cell cultures assessed as increase in cell viability at 250 uM added after 48 hrs post recovery period and measured during recovery for 5 days by MTT assay; format: functional, tissue-based
Primary neuron [23] = assay: Protection against oxygen-glucose deprivation-induced cytotoxicity in Sprague-Dawley rat cerebral cortex primary neuronal cell cultures assessed as increase in cell viability at 250 uM added at onset of recovery period and measured during recovery for 5 days by MTT assay; format: functional, tissue-based
Rattus norvegicus [24] = assay: Neuroprotection in Wistar rat model of ischemia assessed as reduction ischemia-induced neuronal apoptosis in cortical regions at 40 mg/kg, ip dosed at onset of reperfusion period and measured on 5 days of reperfusion by TUNEL assay; format: functional; set-up: scale not given: the % may be the effect or the level left
Rattus norvegicus [25] = assay: Neuroprotection in Wistar rat model of ischemia assessed as reduction in neurological deficit score at 40 mg/kg measured after 5 days of reperfusion; format: functional, organism-based
Rattus norvegicus [26] = assay: Neuroprotection in Wistar rat model of ischemia assessed as reduction ischemia-induced neuronal apoptosis in hippocampal CA1 regions at 40 mg/kg, ip dosed at onset of reperfusion period and measured on 5 days of reperfusion by TUNEL assay; format: functional; set-up: scale not given: the % may be the effect or the level left
Rattus norvegicus [27] = assay: Neuroprotection in Wistar rat model of ischemia assessed as reduction ischemia-induced neuronal death in cortical regions at 40 mg/kg, ip dosed at onset of reperfusion period and measured on 5 days of reperfusion by fluoro jade B staining based fluorescence microscopy; format: functional; set-up: scale not given: the % may be the effect or the level left

CC(C)CCC[C@@H](C)[C@H]1CC[C@H]2[C@@H]3CCC4=C/C(=[N+](/C)[O-])CC[C@]4(C)[C@H]3CC[C@]12C
Activity (Primary neuron [1]): Active
Activity (Primary neuron [2]): inactive
Activity [3]: 0.888 a.u.
Activity (Primary neuron [4]): Active
Activity (Primary neuron [5]): inactive
Activity [6]: 0.998 a.u.

CC(C)CCC[C@@H](C)[C@H]1CC[C@H]2[C@@H]3CC=C4CC(=O)CC[C@]4(C)[C@H]3CC[C@]12C
Activity (Primary neuron [7]): inactive

CC(C)CCC[C@@H](C)[C@H]1CC[C@H]2[C@@H]3CCC4=C/C(=[N+](\C)[O-])CC[C@]4(C)[C@H]3CC[C@]12C
Activity (Rattus norvegicus [8]): 1.25
Activity (Rattus norvegicus [9]): 27%
Activity (Primary neuron [1]): Active
Activity (Primary neuron [2]): Active
Activity (Rattus norvegicus [10]): 17%
Activity (Primary neuron [11]): Active
Activity [3]: 0.931 a.u.
Activity (Rattus norvegicus [12]): 89%
Activity (Primary neuron [13]): Active
Activity (Primary neuron [4]): Active
Activity (Rattus norvegicus [14]): 0.5
Activity (Primary neuron [15]): Active
Activity (Rattus norvegicus [16]): 83%
Activity (Rattus norvegicus [17]): 30%
Activity [18]: Toxic
Activity (Rattus norvegicus [19]): 66%
Activity (Primary neuron [5]): Active
Activity [6]: 0.995 a.u.

CC(C)CCC[C@@H](C)[C@H]1CC[C@H]2[C@@H]3CCC4=CC(=O)CC[C@]4(C)[C@H]3CC[C@]12C [4-CHOLESTEN 3-ONE]
Activity (Primary neuron [7]): inactive
Activity [20]: Toxic

CC(C)(C)/[N+]([O-])=C/c1ccc(S(=O)(=O)[O-])cc1S(=O)(=O)[O-].[Na+].[Na+]
Activity (Rattus norvegicus [21]): 17%
Activity (Primary neuron [22]): inactive
Activity (Primary neuron [11]): Active
Activity (Primary neuron [23]): inactive
Activity (Rattus norvegicus [24]): 55%
Activity (Rattus norvegicus [25]): inactive
Activity (Rattus norvegicus [26]): 21%
Activity (Rattus norvegicus [27]): 66%
